Measured values as given in PubChem BioAssay (NCI).
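Five compound concentrations were applied to cells in 96-well plates for 48 hours; endpoints were derived by simple linear interpolation of the resulting dose-response curve. TGI is the concentration that stops growth completely.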

Tests used:
Experiment in all cases: NCI-60 cell line screen, 48 h
786-0 renal = test system: 786-0 renal
A498 renal = test system: A498 renal
A549 NSCLC = test system: A549 NSCLC
ACHN renal = test system: ACHN renal
BT-549 breast = test system: BT-549 breast
CAKI-1 renal = test system: CAKI-1 renal
CCRF-CEM leukemia = test system: CCRF-CEM leukemia
COLO 205 colon = test system: COLO 205 colon
DU-145 prostate = test system: DU-145 prostate
EKVX NSCLC = test system: EKVX NSCLC
HCT-116 colon = test system: HCT-116 colon
HCT-15 colon = test system: HCT-15 colon
HL-60(TB) leukemia = test system: HL-60(TB) leukemia
HOP-62 NSCLC = test system: HOP-62 NSCLC
HOP-92 NSCLC = test system: HOP-92 NSCLC
HS 578T breast = test system: HS 578T breast
HT29 colon = test system: HT29 colon
IGROV1 ovarian = test system: IGROV1 ovarian
K-562 leukemia = test system: K-562 leukemia
KM12 colon = test system: KM12 colon
LOX IMVI melanoma = test system: LOX IMVI melanoma
M14 melanoma = test system: M14 melanoma
MALME-3M melanoma = test system: MALME-3M melanoma
MCF7 breast = test system: MCF7 breast
MDA-MB-231 breast = test system: MDA-MB-231 breast
MDA-MB-435 = test system: MDA-MB-435
MDA-N = test system: MDA-N
MOLT-4 leukemia = test system: MOLT-4 leukemia
NCI-H226 lung = test system: NCI-H226 lung
NCI-H23 lung = test system: NCI-H23 lung
NCI-H460 lung = test system: NCI-H460 lung
NCI-H522 lung = test system: NCI-H522 lung
NCI/ADR-RES ovarian = test system: NCI/ADR-RES ovarian
OVCAR-3 ovarian = test system: OVCAR-3 ovarian
OVCAR-4 ovarian = test system: OVCAR-4 ovarian
OVCAR-5 ovarian = test system: OVCAR-5 ovarian
OVCAR-8 ovarian = test system: OVCAR-8 ovarian
PC-3 prostate = test system: PC-3 prostate
RPMI-8226 leukemia = test system: RPMI-8226 leukemia
RXF 393 renal = test system: RXF 393 renal
SF-268 CNS = test system: SF-268 CNS
SF-295 CNS = test system: SF-295 CNS
SF-539 CNS = test system: SF-539 CNS
SK-MEL-2 melanoma = test system: SK-MEL-2 melanoma
SK-MEL-28 melanoma = test system: SK-MEL-28 melanoma
SK-MEL-5 melanoma = test system: SK-MEL-5 melanoma
SK-OV-3 ovarian = test system: SK-OV-3 ovarian
SN12C renal = test system: SN12C renal
SNB-19 CNS = test system: SNB-19 CNS
SNB-75 CNS = test system: SNB-75 CNS
SR leukemia = test system: SR leukemia
SW-620 colon = test system: SW-620 colon
T-47D breast = test system: T-47D breast
TK-10 renal = test system: TK-10 renal
U251 CNS = test system: U251 CNS
UACC-257 melanoma = test system: UACC-257 melanoma
UACC-62 melanoma = test system: UACC-62 melanoma
UO-31 renal = test system: UO-31 renal
HCC-2998 colon = test system: HCC-2998 colon

## Nc1c(S(=O)(=O)O)cc(Nc2cccc(S(N)(=O)=O)c2)c2c1C(=O)c1ccccc1C2=O
786-0 renal
  TGI: > 100 µM
A498 renal
  TGI: > 100 µM
A549 NSCLC
  TGI: > 100 µM
ACHN renal
  TGI: > 100 µM
BT-549 breast
  TGI: > 100 µM
CAKI-1 renal
  TGI: > 100 µM
CCRF-CEM leukemia
  TGI: > 100 µM
COLO 205 colon
  TGI: > 100 µM
DU-145 prostate
  TGI: > 100 µM
EKVX NSCLC
  TGI: > 100 µM
HCT-116 colon
  TGI: > 100 µM
HCT-15 colon
  TGI: > 100 µM
HL-60(TB) leukemia
  TGI: > 100 µM
HOP-62 NSCLC
  TGI: 71.9 µM
HOP-92 NSCLC
  TGI: > 100 µM
HS 578T breast
  TGI: 69.9 µM
HT29 colon
  TGI: > 100 µM
IGROV1 ovarian
  TGI: > 100 µM
K-562 leukemia
  TGI: > 100 µM
KM12 colon
  TGI: > 100 µM
LOX IMVI melanoma
  TGI: > 100 µM
M14 melanoma
  TGI: > 100 µM
MALME-3M melanoma
  TGI: 87.9 µM
MCF7 breast
  TGI: > 100 µM
MDA-MB-231 breast
  TGI: > 100 µM
MDA-MB-435
  TGI: 32.6 µM
MDA-N
  TGI: 42.8 µM
MOLT-4 leukemia
  TGI: > 100 µM
NCI-H226 lung
  TGI: > 100 µM
NCI-H23 lung
  TGI: > 100 µM
NCI-H460 lung
  TGI: > 100 µM
NCI-H522 lung
  TGI: > 100 µM
NCI/ADR-RES ovarian
  TGI: > 100 µM
OVCAR-3 ovarian
  TGI: > 100 µM
OVCAR-4 ovarian
  TGI: > 100 µM
OVCAR-5 ovarian
  TGI: > 100 µM
OVCAR-8 ovarian
  TGI: > 100 µM
PC-3 prostate
  TGI: > 100 µM
RPMI-8226 leukemia
  TGI: > 100 µM
RXF 393 renal
  TGI: > 100 µM
SF-268 CNS
  TGI: > 100 µM
SF-295 CNS
  TGI: > 100 µM
SF-539 CNS
  TGI: > 100 µM
SK-MEL-2 melanoma
  TGI: > 100 µM
SK-MEL-28 melanoma
  TGI: > 100 µM
SK-MEL-5 melanoma
  TGI: > 100 µM
SK-OV-3 ovarian
  TGI: 84.6 µM
SN12C renal
  TGI: > 100 µM
SNB-19 CNS
  TGI: > 100 µM
SNB-75 CNS
  TGI: 69 µM
SR leukemia
  TGI: > 100 µM
SW-620 colon
  TGI: > 100 µM
T-47D breast
  TGI: > 100 µM
TK-10 renal
  TGI: > 100 µM
U251 CNS
  TGI: > 100 µM
UACC-257 melanoma
  TGI: > 100 µM
UACC-62 melanoma
  TGI: 58.7 µM
UO-31 renal
  TGI: > 100 µM

## CC(C)C(C/C=C1/CC(CO)(COC(=O)C(C)(C)C)OC1=O)C(C)C (stereo unspecified)
786-0 renal
  TGI: 18.2 µM
A498 renal
  TGI: 21.8 µM
A549 NSCLC
  TGI: 15.3 µM
ACHN renal
  TGI: 21 µM
BT-549 breast
  TGI: 26.9 µM
CAKI-1 renal
  TGI: 17.9 µM
CCRF-CEM leukemia
  TGI: 36.5 µM
COLO 205 colon
  TGI: 5.32 µM
DU-145 prostate
  TGI: 23.4 µM
EKVX NSCLC
  TGI: 23 µM
HCC-2998 colon
  TGI: 15.2 µM
HCT-116 colon
  TGI: 27.5 µM
HCT-15 colon
  TGI: 34.6 µM
HL-60(TB) leukemia
  TGI: 16.2 µM
HOP-62 NSCLC
  TGI: 18.8 µM
HOP-92 NSCLC
  TGI: 25.3 µM
HS 578T breast
  TGI: 11 µM
HT29 colon
  TGI: 32.3 µM
IGROV1 ovarian
  TGI: 31.5 µM
K-562 leukemia
  TGI: 24.9 µM
KM12 colon
  TGI: 27.3 µM
LOX IMVI melanoma
  TGI: 28.4 µM
M14 melanoma
  TGI: 24.4 µM
MALME-3M melanoma
  TGI: 19.2 µM
MCF7 breast
  TGI: 35.6 µM
MDA-MB-231 breast
  TGI: 17.1 µM
MDA-MB-435
  TGI: 21.5 µM
MDA-N
  TGI: 19.6 µM
MOLT-4 leukemia
  TGI: 35.6 µM
NCI-H226 lung
  TGI: 22.7 µM
NCI-H23 lung
  TGI: 23.8 µM
NCI-H460 lung
  TGI: 25.7 µM
NCI-H522 lung
  TGI: 27.6 µM
NCI/ADR-RES ovarian
  TGI: 36.6 µM
OVCAR-3 ovarian
  TGI: 29.9 µM
OVCAR-4 ovarian
  TGI: 31.5 µM
OVCAR-5 ovarian
  TGI: 24.3 µM
OVCAR-8 ovarian
  TGI: 36.4 µM
PC-3 prostate
  TGI: 21.1 µM
RXF 393 renal
  TGI: 30.5 µM
SF-268 CNS
  TGI: 23.5 µM
SF-295 CNS
  TGI: 17.9 µM
SF-539 CNS
  TGI: 15.4 µM
SK-MEL-2 melanoma
  TGI: 29.9 µM
SK-MEL-28 melanoma
  TGI: 30.6 µM
SK-MEL-5 melanoma
  TGI: 20.7 µM
SK-OV-3 ovarian
  TGI: 30.7 µM
SN12C renal
  TGI: 23.3 µM
SNB-19 CNS
  TGI: 26.1 µM
SNB-75 CNS
  TGI: 21.1 µM
SR leukemia
  TGI: > 50.5 µM
SW-620 colon
  TGI: 19 µM
T-47D breast
  TGI: 23.3 µM
TK-10 renal
  TGI: 18 µM
U251 CNS
  TGI: 27.5 µM
UACC-257 melanoma
  TGI: 32.7 µM
UACC-62 melanoma
  TGI: 26 µM
UO-31 renal
  TGI: 17.3 µM
